Measured values reported in a compilation of properties of binary mixtures (doi:10.1021/jp2012254).

Experiment: xn = mol fraction of the nth substance listed
Conditions: 298 K, 101 kPa

CCCC[n+]1ccn(C)c1.O=S(=O)([N-]S(=O)(=O)C(F)(F)F)C(F)(F)F + CC(C)(C)O
Conditions	viscosity [mPa·s]
x2 = 0	50.4

CO + CCCC[n+]1ccn(C)c1.O=S(=O)([N-]S(=O)(=O)C(F)(F)F)C(F)(F)F
Conditions	viscosity [mPa·s]
x1 = 1	0.544

CC(C)(C)O + CCCC[n+]1ccn(C)c1.O=S(=O)([N-]S(=O)(=O)C(F)(F)F)C(F)(F)F
Conditions	electrical conductivity [S/m]	viscosity [mPa·s]
x1 = 0.2367	–	35.8
x1 = 0.3616	0.485	–
x1 = 0.401	0.488	–
x1 = 0.4577	0.497	–
x1 = 0.4791	0.5	–
x1 = 0.5125	0.503	–
x1 = 0.5277	–	20.8
x1 = 0.538	0.507	–
x1 = 0.5851	0.505	–
x1 = 0.7215	0.476	–
x1 = 0.785	0.377	–
x1 = 1	–	3.41

CCCC[n+]1ccn(C)c1.O=S(=O)([N-]S(=O)(=O)C(F)(F)F)C(F)(F)F + CC#N
Conditions	electrical conductivity [S/m]	viscosity [mPa·s]
x2 = 0.1027	0.514	–
x2 = 0.1028	–	39.6
x2 = 0.1514	0.567	–
x2 = 0.2513	0.72	–
x2 = 0.3638	–	17.8
x2 = 0.4169	1.08	–
x2 = 0.5016	1.37	–
x2 = 0.5238	–	9.4
x2 = 0.8396	3.67	–
x2 = 0.9485	4.03	–
x2 = 0.9667	3.41	–
x2 = 0.9794	2.69	–

CCCC[n+]1ccn(C)c1.O=S(=O)([N-]S(=O)(=O)C(F)(F)F)C(F)(F)F + O
Conditions	electrical conductivity [S/m]	viscosity [mPa·s]
x2 = 0.0012	0.416	–
x2 = 0.0014	0.412	–
x2 = 0.0053	0.412	–
x2 = 0.0135	0.431	–
x2 = 0.0273	0.444	–
x2 = 0.0442	–	46.9
x2 = 0.0533	0.444	–
x2 = 0.0737	0.466	–
x2 = 0.0832	–	42.8
x2 = 0.1171	0.494	–
x2 = 0.1253	–	37.2
x2 = 0.1429	–	35.4
x2 = 0.1439	0.52	–
x2 = 0.1721	–	36
x2 = 0.1733	0.549	–
x2 = 0.2119	0.583	–
x2 = 0.2222	–	33.1
x2 = 0.2436	0.61	–
x2 = 0.2523	0.599	–
x2 = 0.2556	–	31
x2 = 0.2559	0.614	–

CCCC[n+]1ccn(C)c1.O=S(=O)([N-]S(=O)(=O)C(F)(F)F)C(F)(F)F + CO
Conditions	electrical conductivity [S/m]	viscosity [mPa·s]
x1 = 0.0104	0.94	–
x1 = 0.0197	–	0.71
x2 = 0	–	50.4
x2 = 0.0302	0.524	46.2
x2 = 0.0942	0.509	–
x2 = 0.1177	0.549	–
x2 = 0.1279	0.509	–
x2 = 0.1577	–	35.8
x2 = 0.16	–	34.2
x2 = 0.1706	0.514	–
x2 = 0.2298	–	28.8
x2 = 0.3938	0.651	–
x2 = 0.432	0.99	–
x2 = 0.5555	1.18	–
x2 = 0.6132	1.74	–
x2 = 0.6242	–	8.27
x2 = 0.662	1.89	–
x2 = 0.6647	1.96	–
x2 = 0.7009	2.12	–
x2 = 0.7546	2.28	–
x2 = 0.7799	2.29	–
x2 = 0.7983	2.45	–
x2 = 0.8188	2.49	–
x2 = 0.8248	–	2.61
x2 = 0.8272	2.51	–
x2 = 0.8805	2.58	–
x2 = 0.8953	–	1.47
x2 = 0.9305	2.42	–
x2 = 0.9462	2.23	–
x2 = 0.9721	1.73	–

CCCC[n+]1ccn(C)c1.O=S(=O)([N-]S(=O)(=O)C(F)(F)F)C(F)(F)F + CCCCO
Conditions	electrical conductivity [S/m]	viscosity [mPa·s]
x2 = 0.0121	0.408	–
x2 = 0.1048	–	41.5
x2 = 0.1229	0.477	–
x2 = 0.3394	0.578	–
x2 = 0.3437	–	22.9
x2 = 0.4228	0.633	–
x2 = 0.4428	0.667	–
x2 = 0.5066	–	15.2
x2 = 0.518	0.677	–
x2 = 0.545	0.677	–
x2 = 0.5556	0.676	–
x2 = 0.5882	0.675	–
x2 = 0.608	0.674	–
x2 = 0.6656	0.66	–
x2 = 0.6796	0.67	–
x2 = 0.7193	–	8.92
x2 = 0.7316	0.59	8.55
x2 = 0.7458	0.57	–
x2 = 0.7645	0.56	–
x2 = 0.7951	0.507	–
x2 = 0.8487	0.401	–
x2 = 0.8618	–	5.83
x2 = 0.878	0.349	–

CCCCO + CCCC[n+]1ccn(C)c1.O=S(=O)([N-]S(=O)(=O)C(F)(F)F)C(F)(F)F
Conditions	viscosity [mPa·s]
x1 = 1	2.6

ClCCl + CCCC[n+]1ccn(C)c1.O=S(=O)([N-]S(=O)(=O)C(F)(F)F)C(F)(F)F
Conditions	electrical conductivity [S/m]	viscosity [mPa·s]
x1 = 0.0175	0.453	–
x1 = 0.1758	–	33.7
x1 = 0.243	0.454	–
x1 = 0.3232	–	21.8
x1 = 0.3949	0.464	–
x1 = 0.4152	0.539	–
x1 = 0.4391	–	15.41
x1 = 0.4625	0.586	–
x1 = 0.4718	0.634	–
x1 = 0.5413	0.657	–
x1 = 0.5646	–	10.01
x1 = 0.6165	1.08	–
x1 = 0.6861	1.18	–
x1 = 0.7283	–	4.25
x1 = 0.7345	1.33	–
x1 = 0.7725	1.47	–
x1 = 0.7751	1.37	–
x1 = 0.776	1.47	–
x1 = 0.8389	1.46	–
x1 = 0.9008	1.21	–
x1 = 0.9319	0.95	–
x1 = 0.9506	0.739	–
x1 = 0.9696	0.46	–
x1 = 1	–	0.433
x2 = 0.0163	0.242	–
x2 = 0.0187	0.287	–

CC#N + CCCC[n+]1ccn(C)c1.O=S(=O)([N-]S(=O)(=O)C(F)(F)F)C(F)(F)F
Conditions	viscosity [mPa·s]
x1 = 1	0.37
